The source of these data is patent publication US11312712B2, “Azabenzimidazoles and their use as AMPA receptor modulators” (Janssen Pharmaceutica NV, priority 2015, dated 2022).

The assay has as its target GluA1o-γ8 (GRIA1o-CACNG8 fusion construct) (Homo sapiens (Human), UniProt P42261+Q8WXS5). Nature of the assay: Calcium flux assay (FLIPR), inhibition of TARP γ8 dependent AMPA receptor activity. The class given is cell-based. Conditions: GluA1o-γ8 (GRIA1o-CACNG8 fusion) in HEK293 cells, calcium flux after 15 μM glutamate. The method, boiled down: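 HEK293 cells stably expressing a 1:1 GRIA1o–CACNG8 fusion were loaded with Calcium-5/6 dye plus compound in pH 7.4 HEPES-buffered saline. FLIPR calcium flux after 15 μM glutamate was normalized to untreated and 10 μM CP465022 controls, and a four-parameter logistic fit gave pIC50.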
On the technique in general: A change in cytosolic calcium serves as a functional read-out for many receptors and channels.

Chain of GluA1o-γ8 (GRIA1o-CACNG8 fusion construct) (P42261 other isoform, or with tags, fused parts or gaps): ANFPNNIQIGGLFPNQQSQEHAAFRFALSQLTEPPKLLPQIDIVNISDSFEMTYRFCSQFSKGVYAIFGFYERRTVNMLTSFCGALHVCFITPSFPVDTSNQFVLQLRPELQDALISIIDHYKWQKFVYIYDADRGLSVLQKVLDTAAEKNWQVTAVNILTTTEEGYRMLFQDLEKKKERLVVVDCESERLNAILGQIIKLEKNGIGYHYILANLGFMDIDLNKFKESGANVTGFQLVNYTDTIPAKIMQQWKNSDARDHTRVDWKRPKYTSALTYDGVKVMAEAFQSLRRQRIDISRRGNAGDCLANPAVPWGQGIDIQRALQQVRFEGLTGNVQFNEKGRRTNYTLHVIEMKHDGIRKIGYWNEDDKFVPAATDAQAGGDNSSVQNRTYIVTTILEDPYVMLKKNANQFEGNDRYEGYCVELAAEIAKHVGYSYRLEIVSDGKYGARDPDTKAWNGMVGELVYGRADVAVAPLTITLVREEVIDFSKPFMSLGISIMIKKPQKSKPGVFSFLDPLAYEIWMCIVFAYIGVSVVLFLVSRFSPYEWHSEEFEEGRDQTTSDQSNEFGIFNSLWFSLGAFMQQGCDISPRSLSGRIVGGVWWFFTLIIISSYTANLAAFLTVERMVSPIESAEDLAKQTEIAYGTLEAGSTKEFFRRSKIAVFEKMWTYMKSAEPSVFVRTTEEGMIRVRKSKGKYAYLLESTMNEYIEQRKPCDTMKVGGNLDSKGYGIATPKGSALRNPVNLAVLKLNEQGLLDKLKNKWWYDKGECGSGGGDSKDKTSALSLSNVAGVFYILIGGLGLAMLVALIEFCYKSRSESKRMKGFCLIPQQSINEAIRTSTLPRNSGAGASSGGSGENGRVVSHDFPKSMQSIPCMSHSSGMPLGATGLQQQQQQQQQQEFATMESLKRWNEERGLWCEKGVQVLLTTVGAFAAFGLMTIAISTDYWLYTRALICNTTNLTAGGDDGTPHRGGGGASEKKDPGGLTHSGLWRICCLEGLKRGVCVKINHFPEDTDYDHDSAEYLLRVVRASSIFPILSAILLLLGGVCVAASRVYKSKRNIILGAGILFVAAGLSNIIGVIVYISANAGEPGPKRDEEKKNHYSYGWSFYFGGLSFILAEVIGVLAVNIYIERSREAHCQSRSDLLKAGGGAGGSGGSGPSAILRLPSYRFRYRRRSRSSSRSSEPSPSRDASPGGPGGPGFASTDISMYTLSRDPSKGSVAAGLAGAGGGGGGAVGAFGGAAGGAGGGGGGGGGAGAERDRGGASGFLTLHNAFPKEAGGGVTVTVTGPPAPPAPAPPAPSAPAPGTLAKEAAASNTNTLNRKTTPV

Consider `OC/C=C/c1cc(-n2c(C(F)(F)F)nc3ccc(C(F)(F)F)nc32)cc2cn[nH]c12` [Example 219, (E)-3-(5-(2,5-Bis(trifluoromethyl)-3H-imidazo[4,5-b]pyridin-3-yl)-1H-indazol-7-yl)prop-2-en-1-ol], for which the IC50 was 15.8 nM.

As usually defined, the IC50 is the midpoint of a concentration-inhibition curve.
